According to patent publication US9403813B2, “Azetidine amide derivatives as orexin receptor antagonists” (ACTELION PHARMACEUTICALS LTD, priority 2013, dated 2016):

Assays:
humans = settings: primary insomnia; cited from earlier work
rat [1] = settings: cited from earlier work
rats [2] = settings: cited from earlier work
rat [3] = settings: cited from earlier work; remark: listed apart in the source
rats [4] = settings: rats treated with the compound; cited from earlier work
[5] = test system: amyloid precursor protein transgenic mice; settings: after acute sleep restriction, APP transgenic mice; cited from earlier work
mouse = settings: administered chronically; cited from earlier work
rats [6] = settings: fasted hungry rats exposed to food odors; cited from earlier work
rat [7] = settings: cited from earlier work; remark: listed apart in the source
human orexin-1 receptor = human orexin-1 receptor (Homo sapiens (Human), UniProt O43613); assay: Intracellular calcium measurements (FLIPR), antagonism of orexin-A response; format: cell-based; settings: CHO cells expressing human orexin-1 receptor, 3 nM orexin-A, geometric mean if determined several times, read-out: IC50 OX1
Sequence of human orexin-1 receptor (O43613 whole entry): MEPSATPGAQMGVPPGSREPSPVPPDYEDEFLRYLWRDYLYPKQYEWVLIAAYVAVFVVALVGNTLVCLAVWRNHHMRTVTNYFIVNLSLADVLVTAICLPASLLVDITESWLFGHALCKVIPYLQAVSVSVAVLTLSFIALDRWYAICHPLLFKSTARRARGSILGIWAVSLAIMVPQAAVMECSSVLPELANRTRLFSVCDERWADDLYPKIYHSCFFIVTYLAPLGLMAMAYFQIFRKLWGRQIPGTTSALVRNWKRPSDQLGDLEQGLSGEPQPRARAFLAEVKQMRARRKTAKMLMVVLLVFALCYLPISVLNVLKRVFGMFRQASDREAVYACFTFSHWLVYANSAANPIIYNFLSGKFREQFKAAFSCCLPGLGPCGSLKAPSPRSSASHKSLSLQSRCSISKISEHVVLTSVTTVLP
Method in brief: (§1)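 CHO cells expressing human OX1 or OX2 receptor, loaded with fluo-4 AM plus probenecid, preincubated with antagonist 120 min before 3 nM orexin-A challenge. FLIPR calcium peak heights compared with agonist-plus-vehicle response. IC50 possibly normalized to on-plate reference; geometric mean of repeat determinations.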

human orexin-2 receptor = human orexin-2 receptor (Homo sapiens (Human), UniProt O43614); assay: as above; format: cell-based; settings: CHO cells expressing human orexin-2 receptor, 3 nM orexin-A, geometric mean if determined several times, read-out: IC50 OX2
Sequence of human orexin-2 receptor (O43614 whole entry): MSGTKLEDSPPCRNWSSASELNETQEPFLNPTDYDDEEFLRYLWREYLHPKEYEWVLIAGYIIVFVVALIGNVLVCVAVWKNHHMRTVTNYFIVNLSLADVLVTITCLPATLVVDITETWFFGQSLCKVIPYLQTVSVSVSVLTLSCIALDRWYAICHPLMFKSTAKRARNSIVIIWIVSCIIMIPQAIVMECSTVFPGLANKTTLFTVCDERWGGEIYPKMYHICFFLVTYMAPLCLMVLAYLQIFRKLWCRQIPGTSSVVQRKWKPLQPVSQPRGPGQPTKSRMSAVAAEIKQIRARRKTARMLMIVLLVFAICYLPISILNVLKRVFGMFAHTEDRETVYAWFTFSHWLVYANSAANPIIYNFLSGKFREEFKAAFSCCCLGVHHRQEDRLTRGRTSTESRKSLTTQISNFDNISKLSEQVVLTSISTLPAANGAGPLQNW
Method in brief: as §1

rodents [8] = settings: cited from earlier work
rodents [9] = settings: cited from earlier work; remark: listed apart in the source

| Compound | IC50 (human orexin-1 receptor) [nM] | IC50 (human orexin-2 receptor) [nM] | also measured |
| --- | --- | --- | --- |
| CNC(=O)[C@@H](c1ccccc1)N1CCc2cc(OC)c(OC)cc2[C@@H]1CCc1ccc(C(F)(F)F)cc1 [(2R)-2-{(1S)-6,7-dimethoxy-1-[2-(4-trifluoromethyl-phenyl)-ethyl]-3,4-dihydro-1H-isoquinolin-2-yl}-N-methyl-2-phenyl-acetamide] | – | – | clinical efficacy (humans): showed clinical efficacy; alertness (active wake and locomotion) (rat [1]): decrease alertness; time spent in REM and NREM sleep (rat [1]): dose-dependently increase the time spent in both REM and NREM sleep; cardiovascular responses to conditioned fear and novelty exposure (rats [2]): attenuated cardiovascular responses; activity in fear-potentiated startle paradigm (rat [3]): active; learning and memory (rats [4]): intact declarative and non-declarative learning and memory; brain levels of amyloid-beta and plaque deposition [5]: decreased brain levels of amyloid-beta (Aβ) as well as Aβ plaque deposition; antidepressant-like activity (mouse): induce antidepressant-like activity; natural activation induced by orexin A (rats [6]): attenuate the natural activation induced by orexin A; activity in nicotine self-administration (rat [7]): displayed pharmacological activity |
| Cc1ccc(C(=O)N2CC[C@H]2c2nnc(-c3ccccc3OC(F)(F)F)[nH]2)c(-n2nccn2)c1 [Example 127, (4-Methyl-2-[1,2,3]triazol-2-yl-phenyl)-{(S)-2-[5-(2-trifluoromethoxy-phenyl)-4H-[1,2,4]triazol-3-yl]-azetidin-1-yl}-methanone] | 866 | 11 | – |
| Cc1cc(C(=O)N2CC[C@H]2c2nnc(-c3ccccc3OC(F)(F)F)[nH]2)c(-n2nccn2)cc1C [Example 128, (4,5-Dimethyl-2-[1,2,3]triazol-2-yl-phenyl)-{(S)-2-[5-(2-trifluoromethoxy-phenyl)-4H-[1,2,4]triazol-3-yl]-azetidin-1-yl}-methanone] | 414 | 9 | – |
| COc1cc(C(=O)N2CC[C@H]2c2nnc(-c3ccccc3OC(F)(F)F)[nH]2)c(-n2nccn2)cc1C [Example 129, (5-Methoxy-4-methyl-2-[1,2,3]triazol-2-yl-phenyl)-{(S)-2-[5-(2-trifluoromethoxy-phenyl)-4H-[1,2,4]triazol-3-yl]-azetidin-1-yl}-methanone] | 454 | 6 | – |
| Cc1cc(-n2nccn2)c(C(=O)N2CC[C@H]2c2nnc(-c3ccccc3OC(F)(F)F)[nH]2)cc1Cl [Example 130, (5-Chloro-4-methyl-2-[1,2,3]triazol-2-yl-phenyl)-{(S)-2-[5-(2-trifluoromethoxy-phenyl)-4H-[1,2,4]triazol-3-yl]-azetidin-1-yl}-methanone] | 245 | 5 | – |
| COc1cc(C(=O)N2CC[C@H]2c2nnc(-c3ccccc3OC(F)(F)F)[nH]2)c(-n2nccn2)cc1Cl [Example 131, (4-Chloro-5-methoxy-2-[1,2,3]triazol-2-yl-phenyl)-{(S)-2-[5-(2-trifluoromethoxy-phenyl)-4H-[1,2,4]triazol-3-yl]-azetidin-1-yl}-methanone] | 497 | 5 | – |
| O=C(c1ccc(Cl)cc1-n1nccn1)N1CC[C@H]1c1nnc(-c2ccccc2OC(F)(F)F)[nH]1 [Example 132, (4-Chloro-2-[1,2,3]triazol-2-yl-phenyl)-{(S)-2-[5-(2-trifluoromethoxy-phenyl)-4H-[1,2,4]triazol-3-yl]-azetidin-1-yl}-methanone] | 315 | 16 | – |
| O=C(c1ccc(C(F)(F)F)cc1-n1nccn1)N1CC[C@H]1c1nnc(-c2ccccc2OC(F)(F)F)[nH]1 [Example 133, (2-[1,2,3]Triazol-2-yl-4-trifluoromethyl-phenyl)-{(S)-2-[5-(2-trifluoromethoxy-phenyl)-4H-[1,2,4]triazol-3-yl]-azetidin-1-yl}-methanone] | 364 | 17 | – |
| Cc1ccc(-c2ccccc2)c(C(=O)N2CC[C@H]2c2nnc(-c3ccccc3OC(F)(F)F)[nH]2)c1 [Example 134, (4-Methyl-biphenyl-2-yl)-{(S)-2-[5-(2-trifluoromethoxy-phenyl)-4H-[1,2,4]triazol-3-yl]-azetidin-1-yl}-methanone] | 563 | 39 | – |
| Cc1ccc(-c2ncccn2)c(C(=O)N2CC[C@H]2c2nnc(-c3ccccc3OC(F)(F)F)[nH]2)c1 [Example 135, (5-Methyl-2-pyrimidin-2-yl-phenyl)-{(S)-2-[5-(2-trifluoromethoxy-phenyl)-4H-[1,2,4]triazol-3-yl]-azetidin-1-yl}-methanone] | 2000 | 348 | – |
| Cn1c(SCC(=O)N2CCC[C@H]2C(=O)Nc2ccccc2-c2ccccc2)nc2ccccc21 [N-Biphenyl-2-yl-1-{[(1-methyl-1H-benzimidazol-2-yl)sulfanyl]acetyl}-L-prolinamide] | – | – | nicotine-reinstatement for a conditioned reinforcer (rodents [8]): inhibited nicotine-reinstatement for a conditioned reinforcer; behavioral and molecular changes induced by repeated amphetamine (rodents [9]): reduced behavioral (locomotor sensitization) and molecular (transcriptional responses) changes |
